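These data come from cells grown in 96-well plates and exposed to compound for 48 hours at five concentrations. Abbreviation: GI50, concentration required for 50% inhibition of growth.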 Activity calls are given as the source filed them. Rule as the data show it: active = GI50 up to about 1.1 µM and inactive = higher.
How the values were obtained:
Assay in all cases: growth of human tumour cells (NCI), 48 h
[1] = system: 786-0
[2] = system: A498
[3] = system: A549
[4] = system: ACHN
[5] = system: BT-549
[6] = system: CAKI-1
[7] = system: CCRF-CEM
[8] = system: COLO 205
[9] = system: EKVX
[10] = system: HCT-116
[11] = system: HCT-15
[12] = system: HOP-62
[13] = system: HOP-92
[14] = system: HT-29
[15] = system: Hs-578T
[16] = system: IGROV-1
[17] = system: K562
[18] = system: KM12
[19] = system: LOX IMVI
[20] = system: M14
[21] = system: MCF7
[22] = system: MDA-MB-231
[23] = system: MDA-MB-435
[24] = system: MDA-N
[25] = system: MOLT-4
[26] = system: Malme-3M
[27] = system: NCI-H226
[28] = system: NCI-H23
[29] = system: NCI-H460
[30] = system: NCI-H522
[31] = system: NCI/ADR-RES
[32] = system: OVCAR-3
[33] = system: OVCAR-4
[34] = system: OVCAR-5
[35] = system: OVCAR-8
[36] = system: PC-3
[37] = system: RPMI-8226
[38] = system: RXF 393
[39] = system: SF-268
[40] = system: SF-295
[41] = system: SF-539
[42] = system: SK-MEL-2
[43] = system: SK-MEL-5
[44] = system: SK-OV-3
[45] = system: SNB-19
[46] = system: SNB-75
[47] = system: SR
[48] = system: SW-620
[49] = system: T47D
[50] = system: TK-10
[51] = system: U-251
[52] = system: UACC-257
[53] = system: UACC-62
[54] = system: UO-31
[55] = system: DU-145
[56] = system: HL-60
[57] = system: SN12C
[58] = system: HCC 2998
[59] = system: SK-MEL-28

Measured: GI50

COc1ccc(C2OCCN2C)cc1 (stereo unspecified)
> 100 µM: [11]
inactive: [1] > 100 µM | [2] > 100 µM | [3] > 100 µM | [4] > 100 µM | [5] > 100 µM | [6] > 100 µM | [7] > 100 µM | [8] > 100 µM | [9] > 100 µM | [10] > 100 µM | [12] > 100 µM | [13] > 100 µM | [14] > 100 µM | [15] > 100 µM | [16] > 100 µM | [17] > 100 µM | [18] > 100 µM | [19] 58.2 µM | [20] > 100 µM | [21] > 100 µM | [22] > 100 µM | [23] > 100 µM | [24] > 100 µM | [25] > 100 µM | [26] > 100 µM | [27] > 100 µM | [28] > 100 µM | [29] 87.1 µM | [30] > 100 µM | [31] > 100 µM | [32] > 100 µM | [33] > 100 µM | [34] > 100 µM | [35] > 100 µM | [36] > 100 µM | [37] > 100 µM | [38] > 100 µM | [39] > 100 µM | [40] > 100 µM | [41] > 100 µM | [42] > 100 µM | [43] > 100 µM | [44] > 100 µM | [45] > 100 µM | [46] 36.9 µM | [47] > 100 µM | [48] > 100 µM | [49] > 100 µM | [50] > 100 µM | [51] > 100 µM | [52] > 100 µM | [53] > 100 µM | [54] > 100 µM

O=c1c2cc(S(=O)(=O)O)ccc2nc(COc2ccc(Oc3ccc(Cl)cc3Cl)cc2)n1-c1ccc(Cl)cc1Oc1c(Cl)cccc1Cl
inactive: [1] 24.7 µM | [2] 25.3 µM | [3] 23.7 µM | [4] 25.1 µM | [5] 21.9 µM | [6] 30.3 µM | [7] 30.9 µM | [8] 17.5 µM | [55] 38 µM | [9] 15.6 µM | [10] 24.8 µM | [56] 47.1 µM | [12] 33.7 µM | [13] 15.7 µM | [14] 20 µM | [15] 26.1 µM | [16] 33 µM | [17] 43.2 µM | [18] 35 µM | [19] 17.5 µM | [20] 21.9 µM | [21] 21.2 µM | [23] 25.6 µM | [24] 30.1 µM | [25] 36 µM | [26] 36.5 µM | [27] 20.6 µM | [28] 24.2 µM | [29] 19.5 µM | [30] 20.7 µM | [31] 23.9 µM | [32] 23.7 µM | [33] 29.4 µM | [34] 23.6 µM | [35] 23.3 µM | [36] 36.4 µM | [37] 21.2 µM | [39] 15.3 µM | [40] 21.8 µM | [41] 16.5 µM | [42] 18.6 µM | [43] 17 µM | [44] 25.2 µM | [57] 30.1 µM | [45] 40.9 µM | [47] 34 µM | [48] 23.3 µM | [49] 46.1 µM | [50] 29.4 µM | [51] 18.3 µM | [52] 30.5 µM | [53] 20.1 µM | [54] 18.3 µM
21 µM: [11]

CN(C)c1nc2nonc2nc1Nc1ccccc1
inactive: [1] > 100 µM | [2] > 100 µM | [3] > 100 µM | [4] > 100 µM | [5] > 100 µM | [7] > 100 µM | [8] > 100 µM | [55] > 100 µM | [9] > 100 µM | [58] > 100 µM | [10] > 100 µM | [56] > 100 µM | [12] > 100 µM | [13] > 100 µM | [14] > 100 µM | [15] > 100 µM | [16] > 100 µM | [17] > 100 µM | [19] > 100 µM | [20] > 100 µM | [21] > 100 µM | [22] > 100 µM | [24] > 100 µM | [25] > 100 µM | [26] > 100 µM | [27] > 100 µM | [28] > 100 µM | [29] > 100 µM | [30] > 100 µM | [31] > 100 µM | [34] > 100 µM | [35] > 100 µM | [36] > 100 µM | [37] > 100 µM | [38] > 100 µM | [39] > 100 µM | [40] > 100 µM | [59] > 100 µM | [42] > 100 µM | [43] > 100 µM | [44] > 100 µM | [57] > 100 µM | [45] > 100 µM | [46] > 100 µM | [47] > 100 µM | [48] > 100 µM | [49] > 100 µM | [50] > 100 µM | [51] > 100 µM | [52] > 100 µM | [53] > 100 µM | [54] > 100 µM
> 100 µM: [11]

— ChEMBL document CHEMBL1201862, “PubChem BioAssay data set” (2004)
